Assay results as given in patent US20050014181A1, “Methods and compositions for the assessment of polymer assembly” (priority 2003, published 2005).

Assays:
mouse aortic SMC = assay: Protein assembly assay: FITC-labeled protein added to mouse aortic SMC (plate reader / fluorescence microscopy); format: cell-based; settings: labeled protein incubated with SMC for 24 h
Protocol: In one embodiment, the assay consists of adding a solution of FITC-labeled protein to cultured cells in the presence or absence of various treatments, then returning the cells to the incubator (37° C., 5% CO2) for various periods of time. Supramolecular protein assembly can be followed in time as a gain of fluorescence using a fluorescence plate reader, or by confocal microscopy with live cells or after fixation of cells. Specifically, for the development of this assay, SMC were used that had been plated into black clear-bottomed 96-well tissue culture-treated plates (Fisher) at 10,000 cells per well in 100 µL of DMEM+10% FBS 2 days prior to performing the assay. […]
At the end of the assay, the culture medium was aspirated and replaced with 10% buffered formalin (Fisher) for 10 min. […] The wells subsequently were washed two times with PBS, then 100 µL of PBS were added to each well and the intensity of the fluorescence was measured with a fluorescence plate reader (CytoFluor® series 4000, PerSeptive Biosystems) using the following settings for protein assembly: ex=480 nm, em=530 nm, gain 85, and ex=360 nm, em=460 nm, gain 80 for cell nuclei.
In each quantitative assay, twelve wells of a 96-well plate were used for each condition. […]

SMC = assay: SDS-PAGE / phosphoimager detection of FITC-labeled protein recovered after incubation with SMC; format: cell-based; settings: 50 or 100 mg/mL, 24 h with SMC in culture
Protocol: SMC were plated in 6-well tissue culture plates at a density of 500,000 cells per well. After 24 h, the media was aspirated and replaced with 1 mL of serum-free media containing 50 or 100 µg/mL of FITC-labeled BSA, collagen, or denatured collagen and placed back in a 37° C., 5% CO2 incubator for 24 h for assembly. The SMC cultured with labeled proteins then were rinsed twice with PBS, after which cell extracts were taken using […] of acidified (0.02M of acetic acid) lysis buffer. Samples […] from each condition before and after culturing with SMC were run on an 1.5-mm SDS-PAGE gel (Biorad apparatus) for 2 h at 150 V. FITC-labeled protein bands were imaged using a phosphoimager (Storm 860, Molecular Dynamics) with the ability to detect green fluorescence.

[1] = test system: SMC-mediated collagen fibrillogenesis; assay: Treatment effects on SMC-mediated collagen fibrillogenesis (FITC-labeled collagen assembly assay, fluorescence plate reader); format: cell-based, mouse; design: % fibrillogenesis of no treatment control / effect of treatment on SMC-assisted collagen fibrillogenesis (FIG. 5A-B) / effect of treatment on collagen fibrils (FIG. 5C): unit of the concentration uncertain; settings: for % fibrillogenesis of no treatment control: 1 (unit uncertain) of compound (smallest concentration used), green fluorescence normalized by cell density
Protocol: In one embodiment, the assay consists of adding a solution of FITC-labeled protein to cultured cells in the presence or absence of various treatments, then returning the cells to the incubator (37° C., 5% CO2) for various periods of time. Supramolecular protein assembly can be followed in time as a gain of fluorescence using a fluorescence plate reader, or by confocal microscopy with live cells or after fixation of cells. Specifically, for the development of this assay, SMC were used that had been plated into black clear-bottomed 96-well tissue culture-treated plates (Fisher) at 10,000 cells per well in 100 µL of DMEM+10% FBS 2 days prior to performing the assay.
After 24 h, the culture medium was changed to DMEM without FBS to promote cell quiescence, then SMC were returned to the incubator (37° C., 5% CO2) for an additional 24 h. Before the start of the assay, the culture medium was aspirated from each well and replaced with 100 µL of FITC-labeled collagen, BSA, or denatured collagen in DMEM without FBS, final concentration between […]. The cells were returned to the incubator for time periods up to 24 h.
At the end of the assay, the culture medium was aspirated and replaced with 10% buffered formalin (Fisher) for 10 min. For normalization of results, cell nuclei were counterstained using HOECHST [500 ng/mL in phosphate-buffered saline (PBS), pH 7.4] for 5 min. The wells subsequently were washed two times with PBS, then 100 µL of PBS were added to each well and the intensity of the fluorescence was measured with a fluorescence plate reader (CytoFluor® series 4000, PerSeptive Biosystems) using the following settings for protein assembly: ex=480 nm, em=530 nm, gain 85, and ex=360 nm, em=460 nm, gain 80 for cell nuclei.
In each quantitative assay, twelve wells of a 96-well plate were used for each condition. Average background readings were obtained from wells without cells or without labeled collagen monomer solution (six each) to ensure that the assay measured only the cell-assisted protein assembly.
To assess the ability of our assay to detect the effects of treatments that interfere with cell cytoskeleton, and therefore may affect fibrillogenesis, SMC were pretreated with […] of cytochalasin D, a chemical that disrupts organization of the actin cytoskeleton, for 30 min prior to the assay. The same concentrations were maintained throughout the assay. Retinoic acid, which has the opposite effect, stiffening SMC cytoskeleton, was added at […] of final concentrations.
To test whether the assay can detect formation of fibrils by incorporating de novo synthesized endogenous collagen, effect of treatments that should directly affect this process were investigated. Ascorbic acid, which enhances the triple helix organization of de novo synthesized collagen, was added at 5, 10, and 50 µM of final concentrations to the SMC culture medium for 24 h prior to the assay and maintained throughout the assay. Homocysteine thiolactone, which is a lysyl oxidase inhibitor and thus impairs the higher organization of collagen, was used at 5, 10, 50, 100, and 500 µM of final concentration in the SMC culture media. To assess the potential effects of these treatments, fibrillogenesis was calculated as the percentage of fibrillogenesis mediated by nontreated SMC.

labeled BSA: FITC-labeled bovine serum albumin
supramolecular assembly seen by fluorescence microscopy (mouse aortic SMC): No assembly was detected | association of labeled protein with SMC monolayer (SDS-PAGE) (SMC): neither BSA nor denatured collagen was associated with cells

CC1=C(/C=C/C(C)=C/C=C/C(C)=C/C(=O)O)C(C)(C)CCC1 [retinoic acid, Retinoic acid]
% fibrillogenesis of no treatment control [1]: 59.5±9.4%

NC1CCSC1=O (stereo not shown) [homocysteine thiolactone, Homocysteine thiolactone]
effect on SMC-mediated collagen assembly ([1]; up to concentrations twice the IC50 value (5-500 M), data not shown): no effects

C=C1[C@@H](C)[C@H]2[C@H](Cc3ccccc3)NC(=O)[C@]23[C@H](OC(C)=O)/C=C/[C@@](C)(O)C(=O)[C@@H](C)C/C=C/[C@H]3[C@@H]1O [cytochalasin D, Cytochalasin D]
% fibrillogenesis of no treatment control [1]: 12.1±1.0% | effect of treatment on SMC-assisted collagen fibrillogenesis (FIG. 5A-B) ([1]; increasing concentrations (1, 5, 10 (unit uncertain))): impairs the ability of SMC to facilitate fibrillogenesis

O=C1O[C@H]([C@@H](O)CO)C(O)=C1O [ascorbic acid, Ascorbic acid]
effect of treatment on collagen fibrils (FIG. 5C) ([1]; 5, 10, 50 (unit uncertain), added 24 h prior to the assay and maintained throughout): moderate, yet statistically significant, enhancement of collagen fibrils
